Columns and labels:
[1] = system: inflammatory responses elicited by topically applied phorbol myristate acetate (PMA) or topically applied arachidonic acid (AA); experiment: Topical mouse ear assay (TME), edema; assay type: in vivo; conditions: PMA or AA challenge (which not stated), N=5 mice/group
Experimental: TABLE II Topical Mouse Ear Assay
Method: The right ears of mice (5 mice per group) were treated topically with either […] or 1000 μg AA alone or with the test compound in 25 μl of vehicle. The vehicle was water/pyridine/acetone (1:2:97). A control group of mice received the vehicle only. The mice were allowed food and water ad libitum during the treatment period; 2 hours for AA and 4 hours for PMA. The mice were sacrificed by cervical dislocation and a 6 mm diameter disc of tissue punched from both the treated and untreated ears. The tissue biopsies were immediately weighed and the weight increase of the treated ear relative to the weight of the untreated ear determined.
All of the data are expressed as the mean±SEM, N=5 mice/group.

[2] = system: inflammatory responses elicited by topically applied phorbol myristate acetate (PMA) or topically applied arachidonic acid (AA); conditions: previously established; cited from earlier work
[3] = system: erythema induced on the skin of guinea pigs by UV radiation; experiment: U.V. erythema assay; assay type: in vivo; conditions: topical, mean of 3 animals
Experimental: The U.V. erythema assay by which topical anti-inflammatory activity is determined, is based on the ability of the compounds of Formula I to inhibit the erythema induced on the skin of guinea pigs by UV radiation. It has been substantiated by recent studies that prostaglandin synthesis and the release thereof may be the primary process involved in the production of erythema. A protocol of the assay and some results thereof are summarized below in Table III.
Guinea pigs were depilated and stabilized for 30 minutes. Following anesthesia with Nembutal (35 mg/kg), they were exposed to a U.V. lamp for 45 minutes at a distance of seven inches from the abdominal surface. Compound was applied topically (seven applications in a total of 0.1 ml vehicle) 15 minutes post exposure. […]
Vehicle 1774--85% EtOH, 12% Propylene Glycol, 3% Methyl Salicylate
A numerical value 0-5 was assigned to the degree of erythema observed under standard lighting conditions. Drug effect on the developing erythema was calculated as follows: [formula] Results: % Inhibition of Erythema by (a) N-(2-hydroxy-5-methoxybenzyl)aniline

COc1ccc(O)c(CNc2cccs2)c1 [A, 2-(2-hydroxy-5-methoxybenzylamino)thiophene]
Edema (% inhibition) ([1]; dosage 300 μg): 77%

COc1ccc(O)c(CNc2cccc3nsnc23)c1 [B, 4-(2-hydroxy-5-methoxybenzylamino)-2,1,3-benzothiadiazole]
Edema (% inhibition) ([1]; dosage 300 μg): 44%

COc1ccc(O)c(CNc2nc3ccccc3[nH]2)c1 [C, 2-(2-hydroxy-5-methoxybenzylamino)benzimidazole]
Edema (% inhibition) ([1]; dosage 300 μg): 80%

C[C@@H]1C[C@H]2[C@@H]3CCC4=CC(=O)C=C[C@]4(C)[C@@]3(F)[C@@H](O)C[C@]2(C)[C@@]1(O)C(=O)CO [Dexamethasone, reference compound]
activity in the topical mouse ear assay [2]: active
Edema (% inhibition) ([1]; dosage 150 μg): 100%

COc1ccc2c(c1)c(CC(=O)O)c(C)n2C(=O)c1ccc(Cl)cc1 [Indomethacin, reference compound]
activity in the topical mouse ear assay [2]: active
Edema (% inhibition) ([1]; dosage 1000 μg): 88%

COc1ccc(O)c(CNc2ccccc2)c1 [N-(2-hydroxy-5-methoxybenzyl)aniline]
% Inhibition of Erythema, 2 Hr. ([3]; 0.1 mg): 19.3%
% Inhibition of Erythema, 3 Hr. ([3]; 0.1 mg): 16.7%
% Inhibition of Erythema, 4 Hr. ([3]; 0.1 mg): 15.0%
% Inhibition of Erythema, 6 Hr. ([3]; 0.1 mg): 6.7%
% Inhibition of Erythema, 24 Hr. ([3]; 0.1 mg): 0%
% Inhibition of Erythema, 2 Hr. ([3]; 0.3 mg): 55.3%
% Inhibition of Erythema, 3 Hr. ([3]; 0.3 mg): 50.0%
% Inhibition of Erythema, 4 Hr. ([3]; 0.3 mg): 46.7%
% Inhibition of Erythema, 6 Hr. ([3]; 0.3 mg): 35.0%
% Inhibition of Erythema, 24 Hr. ([3]; 0.3 mg): 0%
% Inhibition of Erythema, 2 Hr. ([3]; 1.0 mg): 80.3%
% Inhibition of Erythema, 3 Hr. ([3]; 1.0 mg): 91.7%
% Inhibition of Erythema, 4 Hr. ([3]; 1.0 mg): 76.7%
% Inhibition of Erythema, 6 Hr. ([3]; 1.0 mg): 63.3%
% Inhibition of Erythema, 24 Hr. ([3]; 1.0 mg): 26.7%
% Inhibition of Erythema, 2 Hr. ([3]; 3.0 mg): 100%
% Inhibition of Erythema, 3 Hr. ([3]; 3.0 mg): 100%
% Inhibition of Erythema, 4 Hr. ([3]; 3.0 mg): 63.3%
% Inhibition of Erythema, 6 Hr. ([3]; 3.0 mg): 43.3%
% Inhibition of Erythema, 24 Hr. ([3]; 3.0 mg): 33.3%

Reference: US4578390A, “Hydroxybenzylamino derivatives as anti-inflammatory agents” (Merck & Co., Inc., priority 1983, dated 1986)
